Data taken from patent US20010047027A1, “Prostaglandin D2 receptor antagonists” (priority 2000, published 2001).

Molecular target: T1, prostanoid DP receptor (prostaglandin D receptor) (Homo sapiens, UniProt Q13258)
T1 construct: expressed in transfected cells; host or cells: HEK293(EBNA) cells; membranes, 160,000 x g fraction
T1 sequence (Q13258 1-359): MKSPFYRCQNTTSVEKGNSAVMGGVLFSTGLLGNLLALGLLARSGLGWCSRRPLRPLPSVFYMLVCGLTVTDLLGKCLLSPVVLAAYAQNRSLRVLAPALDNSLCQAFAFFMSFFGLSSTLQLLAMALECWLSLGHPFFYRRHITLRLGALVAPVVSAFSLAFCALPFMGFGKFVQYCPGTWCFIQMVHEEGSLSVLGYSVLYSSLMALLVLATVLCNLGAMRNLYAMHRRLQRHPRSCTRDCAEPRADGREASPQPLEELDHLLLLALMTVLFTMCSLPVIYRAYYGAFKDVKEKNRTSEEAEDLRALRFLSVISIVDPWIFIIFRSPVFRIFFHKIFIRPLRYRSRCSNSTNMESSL
Test: Radioligand binding assay using membranes from cells that express recombinant prostanoid DP receptor
Settings: for Ki: membranes of HEK293(EBNA) cells expressing DP, 0.7 nM [3H]PGD2, 60 min at room temperature, n = 5, read-out: Affinity (Ki) for the prostaglandin D receptor; for affinity for the prostaglandin D2 receptor, in words: comparison of the 1R isomers with the other two diastereomers
Method: Radioligand binding assays using membranes from cells that express recombinant prostanoid DP receptor (DP).
Radioligand binding assays are conducted essentially as previously described (Abramovitz et al., Biochem. Biophys. Acta 1483-2, 285-293, 2000). HEK293(EBNA) cells expressing DP are grown in supplemented DMEM complete medium at 37° C. in a humidified atmosphere of 6% CO2 in air, and then harvested. Cells are disrupted by nitrogen cavitation at 800 psi for 30 min. on ice in the presence of protease inhibitors (2 mM phenylmethylsulfonylfluoride, 10 μM E-64, 100 μM leupeptin and 0.05 mg/mL pepstatin). Membranes are prepared by differential centrifugation (1000×g for 10 min, then 160,000×g for 30 min, all at 4° C.). The 160,000×g pellets are resuspended in 10 mM HEPES/KOH (pH 7.4) containing 1 mM EDTA at approximately 5-10 mg/mL protein by Dounce homogenization (Dounce A; 10 strokes), frozen in liquid nitrogen and stored at −80° C. DP receptor binding assays are performed in a final incubation volume of 0.2 mL in 10 mM HEPES/KOH (pH 7.4), containing 1 mM EDTA, 10 mM MnCl2, 0.7 nM [^3H]PGD2 (115-200 Ci/mmol). The reaction was initiated by addition of 30-60 μg membrane protein from the 160,000×g fraction. Test compounds are added in dimethylsulfoxide (Me2SO) at 1% (v/v) in all incubations. Non-specific binding was determined in the presence of 1-10 μM of non-radioactive PGD2. Incubations are conducted for 60 min. at room temperature. Incubations are terminated by rapid filtration at 4° C. Radioactivity bound to the individual filters is determined by scintillation counting. Maximum specific binding is defined as the total binding minus the non-specific binding. Specific binding is determined at each concentration of test compound and is expressed as a percentage of the maximum specific binding. Sigmoidal equilibrium competition curves were constructed by expressing percentage maximum specific binding as a function of ligand concentration and analyzed by a validated custom designed software employing a simplex driven non-linear least-squares curve fitting routine based on a four parameter equation to determine the inflection point concentration (InPt). The corresponding Kivalues were derived from the equation Ki=InPt/1+([radioligand]/KD).

Row | Compound | Ki [µM] | affinity for the prostaglandin D2 receptor, in words
1 | C[S+]([O-])c1cccc2c3c(n(Cc4ccc(Cl)cc4)c12)C(CC(=O)O)CCC3 (single isomer, unassigned) [Enantiomer of Ia, reference compound] | 0.119 ± 0.039 | –
2 | C[S+]([O-])c1cccc2c3c(n(Cc4ccc(Cl)cc4)c12)C(CC(=O)O)CCC3 (single isomer, unassigned) [Enantiomer of Ib, reference compound] | 0.072 ± 0.004 | –
3 | C[S@+]([O-])c1cccc2c3c(n(Cc4ccc(Cl)cc4)c12)[C@@H](CC(=O)O)CCC3 [Compound Ia, 2-[(1R)-9-(4-chlorobenzyl)-8-((S)-methylsulfinyl)-2,3,4,9-tetrahydro-1H-carbazol-1-yl]acetic acid] | 0.0017 ± 0.0003 | much higher affinity
4 | C[S@@+]([O-])c1cccc2c3c(n(Cc4ccc(Cl)cc4)c12)[C@@H](CC(=O)O)CCC3 [Compound Ib, 2-[(1R)-9-(4-chlorobenzyl)-8-((R)-methylsulfinyl)-2,3,4,9-tetrahydro-1H-carbazol-1-yl]acetic acid] | 0.0021 ± 0.0001 | much higher affinity
